Results published in BigSolDB 2.1.

Q: For `O=C(Nc1ccc([N+](=O)[O-])cc1Cl)c1cc(Cl)ccc1O`, which solubility (mole fraction) (in DMSO, 298.15 K) is on record?
A: 0.000152

Q: And the solubility (mole fraction) (in DMSO, 303.15 K)?
A: 0.000161

Q: What about the solubility (mole fraction) (in DMSO, 308.15 K) of the same compound?
A: 0.000165

Q: And the solubility (mole fraction) (in DMSO, 313.15 K)?
A: 0.000167

Q: What about the solubility (mole fraction) (in DMSO, 318.15 K) of the same compound?
A: 0.00017

Q: And the solubility (mole fraction) (in DMSO, 323.15 K)?
A: 0.000205

Q: What about the solubility (mole fraction) (in PEG-200, 298.15 K) of the same compound?
A: 0.000527

Q: What about the solubility (mole fraction) (in PEG-200, 303.15 K) of the same compound?
A: 0.000556

Q: What about the solubility (mole fraction) (in PEG-200, 308.15 K) of the same compound?
A: 0.000604

Q: What about the solubility (mole fraction) (in PEG-200, 313.15 K) of the same compound?
A: 0.000666

Q: What about the solubility (mole fraction) (in PEG-200, 318.15 K) of the same compound?
A: 0.000686

Q: And the solubility (mole fraction) (in PEG-200, 323.15 K)?
A: 0.00079

Q: What about the solubility (mole fraction) (in PEG-400, 298.15 K) of the same compound?
A: 0.0011

Q: And the solubility (mole fraction) (in PEG-400, 303.15 K)?
A: 0.00129

Q: What about the solubility (mole fraction) (in PEG-400, 308.15 K) of the same compound?
A: 0.00138

Q: And the solubility (mole fraction) (in PEG-400, 313.15 K)?
A: 0.00159

Q: What about the solubility (mole fraction) (in PEG-400, 318.15 K) of the same compound?
A: 0.00168

Q: What about the solubility (mole fraction) (in PEG-400, 323.15 K) of the same compound?
A: 0.00193

Q: And the solubility (mole fraction) (in ethanol, 298.15 K)?
A: 0.000166

Q: And the solubility (mole fraction) (in ethanol, 303.15 K)?
A: 0.000183

Q: What about the solubility (mole fraction) (in ethanol, 308.15 K) of the same compound?
A: 0.000186

Q: And the solubility (mole fraction) (in ethanol, 313.15 K)?
A: 0.000186

Q: And the solubility (mole fraction) (in ethanol, 318.15 K)?
A: 0.000199

Q: And the solubility (mole fraction) (in ethanol, 323.15 K)?
A: 0.0002

Q: And the solubility (mole fraction) (in isopropanol, 298.15 K)?
A: 0.000242

Q: What about the solubility (mole fraction) (in isopropanol, 303.15 K) of the same compound?
A: 0.000274

Q: And the solubility (mole fraction) (in isopropanol, 308.15 K)?
A: 0.000279

Q: What about the solubility (mole fraction) (in isopropanol, 313.15 K) of the same compound?
A: 0.000304

Q: What about the solubility (mole fraction) (in isopropanol, 318.15 K) of the same compound?
A: 0.000345

Q: And the solubility (mole fraction) (in isopropanol, 323.15 K)?
A: 0.000348

Q: What about the solubility (mole fraction) (in methanol, 298.15 K) of the same compound?
A: 7.78e-05

Q: What about the solubility (mole fraction) (in methanol, 303.15 K) of the same compound?
A: 7.69e-05

Q: What about the solubility (mole fraction) (in methanol, 308.15 K) of the same compound?
A: 6.9e-05

Q: And the solubility (mole fraction) (in methanol, 313.15 K)?
A: 6.75e-05

Q: And the solubility (mole fraction) (in methanol, 318.15 K)?
A: 5.9e-05

Q: And the solubility (mole fraction) (in methanol, 323.15 K)?
A: 5.35e-05

Q: What about the solubility (mole fraction) (in n-butanol, 298.15 K) of the same compound?
A: 0.000305

Q: What about the solubility (mole fraction) (in n-butanol, 303.15 K) of the same compound?
A: 0.000309

Q: What about the solubility (mole fraction) (in n-butanol, 308.15 K) of the same compound?
A: 0.000345

Q: What about the solubility (mole fraction) (in n-butanol, 313.15 K) of the same compound?
A: 0.000347

Q: And the solubility (mole fraction) (in n-butanol, 318.15 K)?
A: 0.000402

Q: And the solubility (mole fraction) (in n-butanol, 323.15 K)?
A: 0.000591

Q: And the solubility (mole fraction) (in water, 298.15 K)?
A: 3.27e-07

Q: What about the solubility (mole fraction) (in water, 303.15 K) of the same compound?
A: 4.12e-07

Q: And the solubility (mole fraction) (in water, 308.15 K)?
A: 4.19e-07

Q: And the solubility (mole fraction) (in water, 313.15 K)?
A: 4.27e-07

Q: What about the solubility (mole fraction) (in water, 318.15 K) of the same compound?
A: 4.74e-07

Q: And the solubility (mole fraction) (in water, 323.15 K)?
A: 6.04e-07
